According to patent US8252829B2, “Aminopyrrolidinone derivatives and uses thereof” (Link Medicine Corporation, priority 2009, dated 2012):

What was measured:
[1] = biological target: farnesyl transferase (FTase) (Homo sapiens, UniProt P49354+P49356); test: In vitro farnesyl transferase assay (fluorescent dansyl-pentapeptide); format: biochemical; conditions: dGCVLS 4 μM, FPP 5 μM, 25-50 nM FTase, 1% DMSO, room temperature
Protocol: Compounds were analyzed for inhibition of farnesyl transferase (FTase) activity using an established fluorescent peptide-based assay (Pompliano et al 1992 J. Am. Chem. Soc. 114:7945; U.S. Pat. No. 5,525,479, issued Jun. 11, 1996; each of which is incorporated herein by reference). In summary, a dansyl-pentapeptide (dGCVLS) was incubated at 4 μM with 5 μM farnesyl pyrophosphate (FPP) and 25-50 nM FTase in 50 mM Tris-HCl/12 mM MgCl2/12 μM ZnCl2/6 mM DTT/0.2% octyl-D-β-glucopyranoside/pH 7.0 at room temperature while the increase in fluorescence of the peptide at Ex=340 nm, Em=485 nm upon farnesyl addition was monitored continuously by a spectrofluorometer. Test compounds were added to the reaction mixture and the final results were compared to negative control (with solvent only), to allow measurement of the degreee of inhibition at each concentration of compound tested. Serial dilution series of test compounds were used to allow measurement of the IC50s and calculation of the resultant Ki. The linear portion of the reaction progress curve thus created was measured to yield an initial rate (Vo); a plot of Vo versus inhibitor concentration was fit by non-linear regression analysis (GraphPad Prism software) to calculate the […] and the Ki. All reactions in the inhibitor experiments contain a final concentration of 1% DMSO.

[2] = tested on: Farnesyl Transferase (Ras farnesylation) in COS-7 cells; test: Cellular assay for farnesyl transferase activity (cytosolic Ras in COS-7 cells, Western blot); format: cell-based; conditions: 24 hr treatment, cytosolic Ras/actin ratio, read-out: Cell IC50
Text: Ras is a small GTP binding protein whose farnesylation and condequent membrane association can be reduced by inhibition of farnesyl transferase (Appels et al., Oncologist 10:565-578, 2005; Basso et al., J. Lipid Res. 47:15-31, 2006; Tamanoi, Trends Biochem. Sci. 18:349-353, 1993; each of which is incorporated herein by reference). Treatment with certain farnesyl transferase inhibitors (FTIs) reduces the farnesylation and membrane association of Ras, leading to accumulation of Ras in the cytosol of the cells. An assay was developed to monitor FTase activity, based on the amount of Ras present in the cytosolic fraction of COS-7 cells after FTI treatment. On day 0, COS-7 cells were passaged into 6-well plates at a density of 4×10^5 cells/well. Beginning on day 1, cells were treated with test compounds (e.g. FTIs) in 0.2% DMSO for 24 hr. On day 2, cells were lysed by passage through a 25 gauge needle 10 times in 100 μl Buffer 1 (50 mM Tris, 140 mM NaCl, 2 mM EDTA, protease inhibitor cocktail, pH 7.4) and lysates were centrifuged at 16,000 g for 30 min to isolate the cytosolic fraction (supernatant). The cytosolic fraction was analyzed by Western blot using anti-Ras antibody and anti-actin antibody for loaning control.
Western Blotting: Following transfer of SDS gels onto NC membrane, all membranes were blocked with 5% non-fat milk in TBST (50 mM Tris-HCl pH7.4, 150 mM NaCl, 0.1% Tween 20), incubated with primary antibody overnight with 1% BSA in TBST, washed three times with TBST, and incubated with horseradish peroxidase-conjugated secondary antibody for 1 hour (Promega). Bound antibodies were detected using enhanced chemiluminascence (NEM). Results were quantified based on densitometric analysis of Ras signal normalized to actin signal (Ras/actin ratio). Dose response curves were generated for serial dilutions of test compounds, which were then used to measure an IC50 for the test compound by curve fitting with Prism or equivalent software product.

[3] = tested on: isolated islets / INS1 cells; test: Oxygen consumption, Seahorse XF24 bioenergetic assay; format: cell-based, mice; conditions: 1 nM
Protocol: Impaired mitochondrial function is shown by a decreased rate of oxygen consumption. For example, INS1 cells exposed to palmitate show a significant decrease in oxygen consumption rate, both under basal glucose and following stimulation with glucose. The effect of compound 28 at 1 nM on oxygen consumption was determined at 2.5 and 3.5 day incubation time points. Oxygen consumption in INS1 was measured using a Seahorse XF24 bioenergetic assay. Assays have been previously described in detail (See, Wu M, et al. Am J Physiol Cell Physiol 2007; 292:C125-36).
In one aspect, islet oxygen consumption was measured using the XF24 Islet Capture Microplate available from Seahorse Biosciences. An example of an assay to measure islet consumption is as follows:
Modified XF Assay Media (MA Media): Supplement XF DMEM assay media with 3 mM glucose and 1% FBS to run whole islets. (FBS is needed to prevent islets from becoming too adherent). Components/Formulation of Modified XF Assay Media: […]
The XF assay template is prepared via the Assay Wizard using the XF24 operation manual. The assay template is uploaded to the XF24 Analyzer before starting the assay. […]
Whole islets are prepared by standard laboratory procedure. […] The islets are counted under a dissecting microscope. […] The count of the islets is determined and the volume adjusted so that there are ˜70 islets for every 100 microliters of the islet suspension. […]

Structure (SMILES) | Ki [1] | IC50 [2] | increase in mitochondrial respiration (Oxygen Consumption Rate vs. time, % of base line) ([3]; 2.5 days incubation (FIG. 1)) | increase in oxygen consumption ([3]; isolated islets (FIGS. 1 and 2))
N#Cc1ccc(Cn2cncc2CN[C@H]2CCN([C@@H]3CCCc4ccc(Cl)cc43)C2=O)cc1 [Compound 30] | 0.12 nM | 2.8 nM |  | 
N#Cc1ccc(Cn2cncc2CN[C@H]2CCN(C3CCOc4ccc(F)cc43)C2=O)cc1 (stereo partly shown) [Compound 70] |  | 42 nM |  | 
N#Cc1ccc(Cn2cncc2CN[C@H]2CCN([C@@H]3CCOc4ccc(F)cc43)C2=O)cc1 [Compound 28] | 0.059 nM | 1.4 nM | 50% | 50%
N#Cc1ccc(Cn2cncc2CN[C@H]2CCN([C@@H]3CCOc4ccc(Cl)cc43)C2=O)cc1 [Compound 29] | 0.021 nM | 1.8 nM |  | 
N#Cc1ccc(Cn2cncc2CN[C@@H]2CCN([C@@H]3CCOc4ccc(F)cc43)C2=O)cc1 [Compound 71] |  | 2.5 nM |  | 
